Data from the supplement of paper PMC8837787.

system: Saccharomyces cerevisiae ABC16-Green Monster; assay: growth inhibition at single dose (up to 150 µM), below the 70% cut-off for dose-response; higher = more potent; conditions: 18 h; 30 °C; YPD
Summary of the method: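 Percent growth inhibition is the reported value. Drug-sensitive S. cerevisiae ABC16-Green Monster cultures in log phase (OD600 0.1–0.2), 200 µl per well in 96-well plates, received each library compound once at 150 µM in biological duplicates, with untreated cultures run alongside. Growth was followed by OD600 at 0 h and after 18 h at 30 °C. Dose-response was not done for compounds below 70% in both replicates.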

SMILES	growth inhibition at single dose [%]
CN1N=C2c3ccccc3CCC2C1c1ccc(C(F)(F)F)cc1 (centres undefined)	< 70
COc1cc(-c2nc(-c3ccc(Sc4ccccc4)cc3)c(-c3ccccc3)[nH]2)cc(OC)c1O	< 70
O=C(Nc1ccc(CN2CCOCC2)cc1)c1ccc(-c2ccc(Br)cc2)o1	< 70
COc1cc(C2=NCCN2)cc2cc(-c3ccc(C4=NCCN4)cc3)oc12	< 70
O=C(Nc1ccccc1O)c1ccc(Cn2ccnc2)cc1	< 70
COc1cc(C2=NCCN2)ccc1-n1cc(-c2cccc(C3=NCCN3)c2)nn1	< 70
CC(C)C(C(=O)Nc1ccc(S(=O)(=O)N(C)C)cc1)c1ccc(Cl)cc1 (centres undefined)	< 70
O=C(Nc1ncccc1O)c1ccc(N2CCOCC2)nc1	< 70
CC(O)(c1ccc(Cl)cc1)C(CN1CCCCC1)c1ccccc1 (centres undefined)	< 70
CN1CCN(c2cc(-c3ccc(F)cc3)nc(-c3ccncc3)n2)CC1	< 70
COc1ccc(-c2nc(N3CCN(C(=O)C4CCCCC4)CC3)c3c4c(sc3n2)CCCC4)cc1	< 70
O=C(NC1CCN(Cc2ccccc2)CC1)c1cc(-c2ccncc2)nc2ccc(Cl)cc12	< 70
Nc1nc(N)c2c3c(sc2n1)CN(Cc1ccccc1)CC3	< 70
O=C(Nc1ccc(CN2CCOCC2)cc1)c1ccc(-c2cc(Cl)ccc2Cl)o1	< 70
Nc1ncc(Br)cc1-c1nc2cc(Cl)cnc2[nH]1	< 70
Cc1cc(C(=O)COC(=O)c2ccccc2C(F)(F)F)c(C)n1Cc1ccccc1Cl	< 70
CS(=O)(=O)c1ccc(C(=O)N(CC2CCCO2)c2nc3ccccc3s2)cc1[N+](=O)[O-] (centres undefined)	< 70
COc1ccc(N2CCN(C(CNC(=O)CC(C)(C)C)c3ccc4c(c3)OCO4)CC2)cc1 (centres undefined)	< 70
Cc1ccccc1CN1CCC(O)(c2ccc(Cl)c(C(F)(F)F)c2)CC1	< 70
CCCCCCc1cc(O)c2c3c(c(=O)oc2c1)CCC(C)C3 (centres undefined)	< 70
COc1cc(C(=O)Nc2ccc(-c3nc4ccccc4[nH]3)cc2)cc(OC)c1OC	< 70
Cc1cnc(CCNC(=O)c2cc(-c3ccc(Cl)cc3)cs2)[nH]1	< 70
Clc1ccc2nc(CSc3nnc4c(n3)[nH]c3ccccc34)cn2c1	< 70

SMILES	growth inhibition at single dose [%]
Clc1ccc(Cl)c(-c2ccc(CNCCN3CCNCC3)o2)c1	< 70
CNC(=O)C1Cc2c([nH]c3cc(Cl)ccc23)C2(CCN(CCc3ccccc3)CC2)N1 (centres undefined)	< 70
COc1ccc2nc(C)cc(Nc3ccccc3O)c2c1	< 70
CCCCCC(=O)N1c2ccccc2N=C2CC(c3ccc(OC)c(OC)c3)CC(O)=C2C1c1ccc(C(F)(F)F)cc1 (centres undefined)	< 70
Brc1ccc(-[n+]2nc(-c3ccccc3)nn2-c2nn[nH]n2)cc1	< 70
O=c1c2ccccc2cnn1-c1nc2ccccc2s1	< 70
CC1CC(C)C[N+](=C2C=C(N3CCCC3)CC(C)(C)C2)C1 (centres undefined)	< 70
O=C(c1ccc(NCCO)cc1)C1C[C@H]1c1ccc(Cl)cc1 (some centres undefined)	< 70
CCN(CC)CCCN1CCN(C(=O)c2cccc(-c3noc(C(F)(F)F)n3)c2)CC1	< 70
COCCN1COc2c(cc(Cl)c3cccnc23)C1	< 70
Fc1ccc2[nH]c3c(NCCCN4CCOCC4)ncnc3c2c1	< 70
COc1cccc(/C=C/c2n[nH]c(=O)c(C#N)c2C)c1	< 70
CNC1C(OC2C(OC3C(O)C(O)C(NC(=N)N)C(O)C3NC(=N)N)OC(C)C2(O)C=O)OC(CO)C(O)C1O (centres undefined)	< 70
CCn1ncc2c(NC3CCOCC3)c(CNC(=O)c3ccnn3C)c(C)nc21	< 70
COc1ccc(CCn2c(=N)c(C(=O)NCc3cccnc3)cc3c(=O)n4cccc(C)c4nc32)cc1	< 70
CC(C)(C)c1ccc(Oc2ccc(N)cc2)cc1	< 70
Cc1cc(C(=O)Nc2cnn(Cc3ccc(Cl)cc3Cl)c2)no1	< 70
Nc1nccc2ccc(-c3ccc4nccn4c3)cc12	< 70
O=C(Nc1ccc(C23CC4CC(CC(c5ccccc5)(C4)C2)C3)cc1)c1cccs1	< 70
CCN(Cc1ccccc1)C1CCN(Cc2cc(Br)ccc2O)CC1	< 70
O=C(CC1Sc2ccccc2NC1=O)NCCCn1ccc2ccccc21 (centres undefined)	< 70
O=C(Cn1nnc2ccccc2c1=O)c1ccc(C2CCCCC2)cc1	< 70
Cc1cc(Cl)c(S(=O)(=O)N2CCCC2)cc1OCC(=O)NC1CCCCC1	< 70

SMILES	growth inhibition at single dose [%]
Cc1cc(N2CCN(C3CCCC3)CC2)n2c(nc3ccccc32)c1C#N	< 70
O=C(NCCc1ccn(-c2ccccc2)n1)C1CCCCC1	< 70
Cc1cc(C)n2ncc(C(=O)Nc3cccc(/C=C/c4ccccn4)c3)c2n1	< 70
Nc1ncnc2c1c(-c1cnc3ccccc3c1)nn2CC1CCNCC1	< 70
CCN(CC)CCCNc1nc(-c2ccc(Cl)cc2)nc2ccccc12	< 70
Oc1ccccc1CN1CCN(C(c2ccccc2)c2ccccc2)CC1	< 70
COc1ccc(C2c3ccc4ccccc4c3Oc3ncn(CCCn4ccnc4)c(=N)c32)cc1OC (centres undefined)	< 70
COC(=O)c1ccc(Cl)c2c1C1C=CCC1C(c1cccc3ccccc13)N2 (centres undefined)	< 70
FC(F)(F)c1cnc(Sc2nnc(-c3ccncc3)o2)c(Cl)c1	< 70
CCc1ccc(C(NCc2nc(N)nc(N(C)C)n2)C(C)C)cc1 (centres undefined)	< 70
COc1ccccc1N1CCN(c2nc(=O)c3c([nH]2)CCC3)CC1	< 70
C/N=c1\scc(-c2ccco2)n1/N=C/c1sccc1C	< 70
c1nc(NCc2ccc(CN3CCOCC3)cc2)c2sccc2n1	< 70
COC(=O)CCSc1c2ccc(Cl)cc2nc2ccc(OC)cc12	< 70
CCC(C)NCC(O)(c1ccc(Cl)cc1)c1ccc(Cl)cc1 (centres undefined)	< 70
C/N=c1\scc(-c2ccc(OC(F)F)cc2)n1/N=C/c1ccccc1Br	< 70
CN1CCN(c2c3c(c(C#N)c4nc5ccccc5n24)CCC3)CC1	< 70
COc1ccc2c(c1)CCCC21NC(=O)N(Cc2nc3ccccc3s2)C1=O (centres undefined)	< 70
Cc1cc(NC(=O)C2c3ccccc3C(=O)N(CC(C)C)C2c2cccs2)no1 (centres undefined)	< 70
O=C1O[C@@H](COc2ccon2)CN1c1cc(F)c(C2=CCN(Cc3ccccc3)CC2)c(F)c1	< 70
O=C(Nc1ccc([N+](=O)[O-])cc1)Nc1cccnc1Cl	< 70
O=C(Nc1ccc(Oc2cc(C(F)(F)F)cc(C(F)(F)F)c2)cc1)Nc1ccc(OC(F)(F)F)cc1	< 70
COc1ccc(N2CCN(C(CNC(=O)C3CCCCC3)c3ccc4c(c3)OCO4)CC2)cc1 (centres undefined)	< 70
